Source: US12403116B2, “Hydroxypentyl benzoic acid diester compound, and preparation method and pharmaceutical application thereof” (CHINESE ACADEMY OF MEDICAL SCIENCES INSTITUTE OF MEDICINAL …, priority 2022, dated 2025)

How the values were obtained:
Format in all cases: in vivo, rat
MCAO/R model rats [1] = assay: Neurological function evaluation (Longa 5-level score) in MCAO/R model rats; details: for neurological function scores: 24 hours of reperfusion, Longa score; for neurological function scores compared with the NBP group / efficiency (vs NBP group): NBP 5 mg/kg; for neurological function scores compared with the NBP group: result in words; for efficiency (vs L-NBP group): L-NBP 2.5 mg/kg
Experimental: (§1) • SHAM group: sham surgery group • Middle cerebral artery occlusion (MCAO) model group • Butylphthalide (NBP): 5 mg/kg • Levobutylphthalide (L-NBP): 2.5 mg/kg • NRB (Compound 1): 15 mg/kg (equivalent to a dose of 4.9 mg/kg of NBP through conversion) • Low dose of L-NRB (compound 2): 7.5 mg/kg (equivalent to a dose of 2.45 mg/kg of L-NBP through conversion) • High dose of L-NRB (compound 2): 15 mg/kg (equivalent to a dose of 4.9 mg/kg of L-NBP through conversion) • Aspirin group (ASP): 10 mg/kg 2. Administration Method
(§2) The rats in the sham surgery group and the MCAO model group were administered the same amount of normal saline by intraperitoneal administration for 5 consecutive days before modeling, and then the MCAO operation was performed.
(§3) The middle cerebral artery occlusion (MCAO) model was made by thread-occlusion method. The operation process was strictly conducted in aseptic mode. The main operation process was as follows: the rat was anesthetized by intraperitoneal injection of chloral hydrate, the common carotid artery (CCA), external carotid artery (ECA) and internal carotid artery (ICA) were separated, the common carotid artery was clamped with a microarterial clamp, and the branches of the external carotid artery were electrocoagulated with a bipolar electrocoagulation pen. The main trunk of the external carotid artery was separated and ligated at a distance of 3-4 mm from the bifurcation of the common carotid artery. The internal carotid artery was temporarily clamped with a micro artery clamp. A small incision into the external carotid artery was cut with an ophthalmic scissors, and a 4-0 monofilament nylon thread coated with methylpolysiloxane was inserted. A loose knot was made at the incision of the external carotid artery to block the blood reflux of the internal carotid artery. The micro artery clamp of the internal carotid artery was removed, and the nylon thread is gently pushed into the internal carotid artery to reach the anterior cerebral artery in the skull, to block the opening of the middle cerebral artery (MCA), and the insert depth is approximately 18-22 mm. The microarterial clamp of the common carotid artery was removed, the subcutaneous tissue and skin were sutured layer by layer after disinfection, and the nylon thread was slowly draw out at 2 hours after operation, and the reperfusion was conducted. In the sham surgery group, all operations were the same except that nylon thread was not inserted. The rectal temperature of all rats was maintained at 37° C. throughout the entire experimental process.
After 24 hours of reperfusion, all rats were evaluated for neurobehavioral scores using the Longa 5-level scoring method. Longa scoring standard: 0, normal, without neurological impairment; 1, left forelimb extension disorder, weakened function; 2, circling to the left, paralysis of the left forelimb and severe impairment of function, and the rat keeps twisting towards the damaged area after lifting the rat's tail; 3, when walking, tilt to the left; 4, limb paralysis, unconscious consciousness.

MCAO/R model rats [2] = assay: Cerebral infarction area (TTC staining) in MCAO/R model rats; details: for infarction area (%): 24 hours of reperfusion, TTC staining; for efficiency (vs L-NBP model group): L-NBP 2.5 mg/kg; for efficiency (vs NBP model group) / cerebral infarction area compared with the NBP group: NBP 5 mg/kg; for cerebral infarction area compared with the NBP group: result in words
Experimental: as §1, §2, §3
After 24 hours of reperfusion, the cerebral infarction area was measured using tetrazolium red (TTC) staining. The rats were killed by cutting the neck, and the whole brain was quickly taken out. After being placed in the refrigerator at −20° C. for a short time and placed on the ice plate, and the olfactory bulb was removed. The forebrain was cut into six slices with a thickness of 2 mm along the coronal plane. The brain slices were placed in 1.5 mL of 2% TTC solution and incubated in dark for 30 minutes. Then the brain slices were fixed in 10% paraformaldehyde overnight, and then photographed for analysis. Use Image-J software to measure and calculate the volume of cerebral infarction.

[3] = system: rats with middle cerebral artery occlusion (MCAO) model; assay: Pre-experiments: reduction of cerebral infarction area in MCAO model rats; details: result in words; C compared with B, D compared among 1:2 conjugates
Text: Based on the effects of both butylphthalide and dexborneol on improving cerebral circulation and protecting cardio cerebral vessels, the inventor team of this application adopted progressive pre-experiments. First, butylphthalide and dexborneol were simply combined in a molar ratio 1:1 to form a composition.

[4] = neurological function score, dose 7.5 mg/kg
[5] = neurological function score, dose 15 mg/kg
[6] = cerebral infarction area, dose 7.5 mg/kg
[7] = cerebral infarction area, dose 15 mg/kg
[8] = neurological function score, dose 2.5 mg/kg

CC(=O)Oc1ccccc1C(=O)O [ASP, Aspirin, reference compound]
neurological function scores (MCAO/R model rats [1]; dose 10 mg/kg): 1.6 ± 0.5 | inhibition rate (vs model group) (MCAO/R model rats [1]; neurological function score, dose 10 mg/kg): 52.9% | infarction inhibition rate (vs model group) (MCAO/R model rats [2]; dose 10 mg/kg): 48.5% | infarction area (%) (MCAO/R model rats [2]; dose 10 mg/kg): 15.2 ± 7.0 %

CCCC[C@H](OC(=O)CCC(=O)OC1CC2CCC1(C)C2(C)C)c1ccccc1C(=O)OC1CC2CCC1(C)C2(C)C (stereo in doubt) [L-NRB]
neurological function scores (MCAO/R model rats [1]; dose 7.5 mg/kg): 1.4 ± 0.7**$ | neurological function scores compared with the NBP group (MCAO/R model rats [1]; dose 7.5 mg/kg, p<0.05): significant reductions | neurological function scores (MCAO/R model rats [1]; dose 15 mg/kg): 1.1 ± 0.4**$$& | neurological function scores compared with the NBP group (MCAO/R model rats [1]; dose 15 mg/kg): significant reductions | inhibition rate (vs model group) (MCAO/R model rats [1]; [4]): 58.8% | efficiency (vs L-NBP group) (MCAO/R model rats [1]; [4]): 22.2% | efficiency (vs NBP group) (MCAO/R model rats [1]; [4]): 39.1% | inhibition rate (vs model group) (MCAO/R model rats [1]; [5]): 67.6% | efficiency (vs ASP group) (MCAO/R model rats [1]; neurological function score, dose 15 mg/kg, ASP 10 mg/kg): 31.3% | efficiency (vs L-NBP group) (MCAO/R model rats [1]; [5]): 38.9% | efficiency (vs NBP group) (MCAO/R model rats [1]; [5]): 52.2% | efficiency (vs L-NBP model group) (MCAO/R model rats [2]; [6]): 29.1% | efficiency (vs NBP model group) (MCAO/R model rats [2]; [6]): 42.3% | Efficiency (vs ASP model group) (MCAO/R model rats [2]; cerebral infarction area, dose 15 mg/kg, ASP 10 mg/kg): 56.6% | efficiency (vs L-NBP model group) (MCAO/R model rats [2]; [7]): 58.2% | efficiency (vs NBP model group) (MCAO/R model rats [2]; [7]): 66.0% | infarction inhibition rate (vs model group) (MCAO/R model rats [2]; dose 7.5 mg/kg): 62.0% | infarction area (%) (MCAO/R model rats [2]; dose 7.5 mg/kg): 11.2 ± 4.4**$ % | cerebral infarction area compared with the NBP group (MCAO/R model rats [2]; dose 7.5 mg/kg, p<0.05): significant reductions | infarction inhibition rate (vs model group) (MCAO/R model rats [2]; dose 15 mg/kg): 77.6% | infarction area (%) (MCAO/R model rats [2]; dose 15 mg/kg): 6.6 ± 3.5**$$&& % | cerebral infarction area compared with the NBP group (MCAO/R model rats [2]; dose 15 mg/kg): significant reductions

CCCC[C@@H]1OC(=O)c2ccccc21 [L-NBP, Levobutylphthalide, reference compound]
neurological function scores (MCAO/R model rats [1]; dose 2.5 mg/kg): 1.8 ± 0.6 | inhibition rate (vs model group) (MCAO/R model rats [1]; [8]): 47.1% | efficiency (vs NBP group) (MCAO/R model rats [1]; [8]): 21.7% | efficiency (vs NBP model group) (MCAO/R model rats [2]; cerebral infarction area, dose 2.5 mg/kg): 18.6% | infarction inhibition rate (vs model group) (MCAO/R model rats [2]; dose 2.5 mg/kg): 46.4% | infarction area (%) (MCAO/R model rats [2]; dose 2.5 mg/kg): 15.8 ± 6.7 %

CCCCC(OC(=O)CCC(=O)O[C@@H]1C[C@@H]2CC[C@@]1(C)C2(C)C)c1ccccc1C(=O)O[C@@H]1C[C@@H]2CC[C@@]1(C)C2(C)C (some centres unmarked) [NRB]
neurological function scores (MCAO/R model rats [1]; dose 15 mg/kg): 1.3 ± 0.5**$ | neurological function scores compared with the NBP group (MCAO/R model rats [1]; dose 15 mg/kg): significant reductions | inhibition rate (vs model group) (MCAO/R model rats [1]; [5]): 61.8% | efficiency (vs NBP group) (MCAO/R model rats [1]; [5]): 43.5% | efficiency (vs NBP model group) (MCAO/R model rats [2]; [7]): 44.8% | infarction inhibition rate (vs model group) (MCAO/R model rats [2]; dose 15 mg/kg): 63.7% | infarction area (%) (MCAO/R model rats [2]; dose 15 mg/kg): 10.7 ± 7.9**$ % | cerebral infarction area compared with the NBP group (MCAO/R model rats [2]; dose 15 mg/kg): significant reductions

CCCC[C@H](OC(=O)CCC(=O)O[C@@H]1C[C@@H]2CC[C@@]1(C)C2(C)C)c1ccccc1C(=O)O[C@@H]1C[C@@H]2CC[C@@]1(C)C2(C)C [formula D]
activity (pre-experiments, comparison between conjugates) [3]: superior

CCCCC(OC(C)=O)c1ccccc1C(=O)O[C@@H]1C[C@@H]2CC[C@@]1(C)C2(C)C (some centres unmarked) [formula B]
activity (pre-experiments, comparison between conjugates) [3]: only slightly improved

CCCCC1OC(=O)c2ccccc21 (racemic) [NBP, (R/S)-3-n-butyl-1(3H)-isobenzofuranone, reference compound]
neurological function scores (MCAO/R model rats [1]; dose 5 mg/kg): 2.3 ± 1.0 | inhibition rate (vs model group) (MCAO/R model rats [1]; neurological function score, dose 5 mg/kg): 32.4% | infarction inhibition rate (vs model group) (MCAO/R model rats [2]; dose 5 mg/kg): 34.2% | infarction area (%) (MCAO/R model rats [2]; dose 5 mg/kg): 19.4 ± 7.0 %

CCCCC(OC(=O)CCC(=O)O[C@@H]1C[C@@H]2CC[C@@]1(C)C2(C)C)c1ccccc1C(=O)O[C@@H]1C[C@@H]2CC[C@@]1(C)C2(C)C (some centres unmarked) [formula C]
activity (pre-experiments, comparison between conjugates) [3]: significantly better
